Two compounds from US20010021705A1, “Disodium alendronate formulations” (MERCK & CO., Inc., priority 1995, published 2001) can be followed below.

For the data set the following is noted: for aqueous pH: concentration not stated (summary).

Each structure is given as a SMILES string. Structures can show the parent of a compound that is named as a salt. Where two headings read alike, the source gives them in different places.

With `NCCCC(O)(P(=O)(O)O)P(=O)(O)O` [free acid, 4-amino-1-hydroxybutylidene-1,1-bisphosphonic acid], the “aqueous pH” value is “about 2.2”. For the same compound, the “solution pH” value (at 8 mg/ml) was 2.2.

For the compound `NCCCC(O)(P(=O)(O)O)P(=O)(O)O` [disodium salt, 4-Amino-1-Hydroxy-Butylidene-1,1-Bisphosphonic Acid Disodium Salt Monohydrate], the “solution pH” value (at 50 mg/ml) was found to be 8.7. Also, the “aqueous pH” value (Disodium Salt Monohydrate) is “about 8.7”.
